According to US20090022726A1, “METHOD OF USING IL6 ANTAGONISTS WITH PROTEASOME INHIBITORS” (priority 2005, published 2009):
Entries after “also recorded” stand apart in the source; their conditions may differ.

How the values were obtained:
ANBL-6 cells [1] = assay: Apoptosis assay, KNK437 with bortezomib; assay type: cell-based; conditions: ANBL-6, KNK437 with bortezomib, 12 hours, compared with control treated cells
Method: (§1) ANBL-6 and KAS-6 cells were incubated with 10 mcg/ml (ANBL-6) or 1 mcg/ml (KAS-6) of CNTO 328 or the control antibody, F105, for 8 (ANBL-6) to 12 (KAS-6) hours. Apoptosis was determined using an ELISA-based assay that measures the presence of mono- and oligo-nucleosomes (Roche Applied Science, Indianapolis, Ind.) and expressed as a fold increase in apoptosis over DMSO and F105-treated controls. Cells were treated in RPMI 1640 media containing 10% FBS and 1 ng/mL of IL-6 (FIGS. 3 A and B, column height represents the mean of triplicate cultures; bars, SEM).
(§2) ANBL-6 or MEF cells (control and HSF-1−/−) were incubated with either DMSO control or increasing concentrations of bortezomib and KNK437 for 12 (ANBL-6) to 24 hours (MEFs). Apoptosis was determined as described above and expressed as a fold increase in apoptosis over DMSO-treated controls. ANBL-6 cells were treated in RPMI 1640 media containing 10% FBS and 1 ng/mL of IL-6 (FIG. 5, columns, mean of triplicate cultures; bars, SEM).

[2] = system: normal mouse embryo fibroblasts (MEFs); assay: Apoptosis assay, KNK437 with bortezomib; assay type: cell-based; conditions: normal (HSF-1+/+) MEFs, 24 hours
Method: as §1, §2

HSF-1 knockout MEFs = assay: Apoptosis assay, KNK437 with bortezomib; assay type: cell-based, mouse; conditions: 24 hours
Method: as §1, §2

KAS-6 cells [3] = assay: Apoptosis, KNK437 with bortezomib; assay type: cell-based
[4] = system: IL-6 signaling, HSP-70 and MKP-1 in ANBL-6 cells; assay: Immunoblot analysis of IL-6 signaling, HSP-70 and MKP-1 with densitometry; assay type: cell-based
Method: ANBL-6 cells were incubated with 10 mcg/ml of CNTO 328 or the control antibody, F105, with or without increasing concentrations of bortezomib for 8 hours. Cell lysates were prepared and subjected to immunoblot analysis. Blots were stripped and probed for HSC-70 to ensure equal protein loading per lane. Densitometry was performed on HSP-70 and MKP-1 immunoblots.

[5] = system: refractory or relapsed myeloma; conditions: refractory or relapsed disease, initial phase II clinical trial (Richardson et al. 2003); cited from earlier work
proteasome = conditions: over human leukocyte elastase, cathepsin G, chymotrypsin and thrombin; cited from earlier work
ANBL-6 cells [6] = assay: WST-1 cell viability, antibody alone; assay type: cell-based; conditions: increasing concentrations, 24 and 48 hours, 1 ng/mL of IL-6
Method: (§3) ANBL-6 and KAS-6 cells (Dr. Diane Jelinek, Mayo Clinic, Rochester, Minn.) were incubated with increasing concentrations of CNTO 328 or the isotype control antibody, F105, for 24 and 48 hours. For the last 4 hours, the cells were incubated in the presence of WST-1 (Roche Applied Science, Indianapolis, Ind.). Reduction of WST-1 into a water soluble formazan salt by viable cells was measured at an absorbance of 450 nm using an ELISA plate reader. Viability was measured as percent viability relative to untreated cells. All cells were treated in RPMI 1640 media containing 10% FBS and 1 ng/mL of IL-6.

KAS-6 cells [7] = assay: WST-1 cell viability, antibody alone; assay type: cell-based; conditions: increasing concentrations, 24 and 48 hours, 1 ng/mL of IL-6
Method: as §3

ANBL-6 cells [8] = assay: WST-1 cell viability, antibody combined with bortezomib; assay type: cell-based
Method: as §3
(§4) The ANBL-6, KAS-6, or IL-6-independent RPMI 8226 myeloma cell lines were pre-incubated with 0.1 mcg/ml (KAS-6) or 10 mcg/ml (ANBL-6 and RPMI 8226) of the control antibody, F105, or CNTO 328 for 24 hours, followed by co-incubation with either DMSO control or increasing concentrations of bortezomib in the continued presence of F105 or CNTO 328 for another 24 hours. For sequencing experiments, ANBL-6 cells were treated with: 1) F105 or CNTO 328 for 24 hours followed by F105 or CNTO 328 and bortezomib 5 nM for another 24 hours (antibody→bortezomib); 2) F105 or CNTO 328 and bortezomib 5 nM concurrently for 24 hours (antibody+bortezomib), or bortezomib at 5 nM for 12 hours followed by F105 or CNTO 328 for 24 hours (bortezomib→antibody). Cell viability was assayed as described above and measured as percent viability relative to untreated cells. All cells were treated in RPMI 1640 media containing 10% FBS and 1 ng/mL of IL-6. Columns, mean of quintuplicate cultures; bars, SEM.

[9] = system: IL-6-independent RPMI 8226 myeloma cell line; assay: as above; assay type: cell-based; conditions: RPMI 8226, 10 mcg/ml antibody pre-incubated 24 hours, then bortezomib 24 hours
Method: as §3, §4

KAS-6 cells [10] = assay: as above; assay type: cell-based; conditions: KAS-6, 0.1 mcg/ml antibody pre-incubated 24 hours, then bortezomib 24 hours; relative to control antibody F105
Method: as §3, §4

ANBL-6 cells [11] = assay: ELISA-based apoptosis assay (mono- and oligo-nucleosomes), antibody and bortezomib; assay type: cell-based; conditions: ANBL-6, 10 mcg/ml CNTO 328 with bortezomib, 8 hours
Method: as §1

KAS-6 cells [12] = assay: as above; assay type: cell-based; conditions: KAS-6, 1 mcg/ml CNTO 328 with bortezomib, 12 hours
Method: as §1

[13] = system: IL-6-independent myeloma cell line RPMI 8226; assay: ELISA-based apoptosis assay, antibody and bortezomib; assay type: cell-based; conditions: RPMI 8226, data not shown
[14] = system: IL-6 signaling in KAS-6 cells; assay: Down-regulation of IL-6 signaling (phospho-protein levels); assay type: cell-based
[15] = 10 mcg/ml CNTO 328 with bortezomib, 8 hours, densitometry
[16] = CNTO 328 with bortezomib, immunoblot

Molecule: O=CN1CC/C(=C\c2ccc3c(c2)OCO3)C1=O [KNK437]
- bortezomib-mediated apoptosis (fold increase over DMSO-treated controls) (ANBL-6 cells [1]): significant increase in bortezomib-mediated apoptosis
- synergistic activity with bortezomib (apoptosis) [2]: reproduced
- synergistic activity with bortezomib (apoptosis) (HSF-1 knockout MEFs): blunted
- apoptotic activity of bortezomib (KAS-6 cells [3]): enhanced the apoptotic activity of bortezomib

Molecule: CC(C)C[C@H](NC(=O)[C@H](Cc1ccccc1)NC(=O)c1cnccn1)B(O)O [bortezomib, reference compound]
- levels of phospho-STAT-3 ([4]; 8 hours, immunoblot): decreased levels
- levels of phospho-p42/44 MAPK ([4]; 8 hours, immunoblot): decreased levels
- patients with partial responses or better [5]: 27%
- selectivity for the proteasome over other serine proteases (proteasome): > 500 fold

Molecule: CNTO 328: chimeric monoclonal IL-6 neutralizing antibody
- cell viability (percent viability relative to untreated cells) (ANBL-6 cells [6]): dose- and time-dependent reduction in cell viability
- cell viability (percent viability relative to untreated cells) (KAS-6 cells [7]): dose- and time-dependent reduction in cell viability
- effect on cytotoxicity of bortezomib (cell viability) (ANBL-6 cells [8]; ANBL-6, 10 mcg/ml antibody pre-incubated 24 hours, then bortezomib 24 hours, relative to control antibody F105): potentiated the cytotoxicity of bortezomib
- effect on cytotoxicity of bortezomib, sequencing (ANBL-6 cells [8]; ANBL-6, antibody 24 hours followed by antibody and bortezomib 5 nM 24 hours (antibody→bortezomib)): enhanced the cytotoxicity of bortezomib most
- effect on cytotoxicity of bortezomib, sequencing (ANBL-6 cells [8]; ANBL-6, antibody and bortezomib 5 nM concurrently for 24 hours (antibody+bortezomib)): enhanced the cytotoxicity of bortezomib most
- effect on cytotoxicity of bortezomib, sequencing (ANBL-6 cells [8]; ANBL-6, bortezomib 5 nM 12 hours followed by antibody 24 hours (bortezomib→antibody)): little additional effect
- effect on activity of bortezomib (cell viability) [9]: did not enhance the activity of bortezomib
- effect on cytotoxicity of bortezomib (cell viability) (KAS-6 cells [10]): potentiated the cytotoxicity of bortezomib
- induction of apoptosis (fold increase over DMSO and F105-treated controls) (ANBL-6 cells [11]): enhanced induction of apoptosis; also recorded: greater than the sum of the two individual agents alone
- induction of apoptosis (fold increase over DMSO and F105-treated controls) (KAS-6 cells [12]): enhanced induction of apoptosis; also recorded: greater than the sum of the two individual agents alone
- potentiation of apoptosis [13]: not able to potentiate apoptosis
- decrease of bortezomib-mediated induction of HSP-70 [4, 15]: 45%
- decrease of bortezomib-mediated induction of MKP-1 [4, 15]: 90%
- levels of phospho-STAT-3 ([4]; 8 hours, immunoblot): reduction in levels
- levels of phospho-p42/44 MAPK ([4]; 8 hours, immunoblot): reduction in levels
- levels of hyperphosphorylated HSF-1 [4, 16]: decreased levels
- levels of transcriptionally active phospho-STAT-1 [4, 16]: decreased levels
- phospho-STAT-3 and phospho-p42/44 MAPK levels [14]: marked decrease
